{"source": "patent US10138490B2", "about": "“Transformed plants tolerant to herbicides due to overexpression of prephenate dehydrogenase and p-hydroxyphenylpyruvate dioxygenase” (priority 2002, dated 2018)", "format_in_all_cases": "in vivo", "key": {"[1]": {"tested_on": "PBD6-ARA9 tobacco line (overexpressing A. thaliana HPPD)", "experiment": "Tolerance to HPPD inhibitors: sowing on increasing concentrations of DKN, parental line", "text": "(§1) The tolerance of the transformed plants is studied by sowing on a soil treated with diketonitrile (DKN).\n(§2) 13 ARA9-PDH lines and the PBD6-ARA9 line that was used as starting material for the transformation were sown on increasing concentrations of DKN:5, 10 and 32 ppm."}, "[2]": {"tested_on": "ARA9-PDH tobacco lines (overexpressing PDH and HPPD)", "experiment": "Tolerance to HPPD inhibitors: sowing on increasing concentrations of DKN, doubly transformed lines", "text": "as §1, §2"}, "ARA9-PDH18 tobacco line": {"tested_on": "ARA9-PDH18 tobacco line", "experiment": "Tolerance to sulcotrione and to mesotrione, ARA9-PDH18 line", "method": "as §2\nThe same experiment was carried out with the HPPD inhibitors sulcotrione and mesotrione."}, "[3]": {"tested_on": "wild-type tobacco line of the Petit Havana type", "experiment": "Tolerance to sulcotrione and to mesotrione, wild-type line"}}, "data": [{"smiles": "CS(=O)(=O)c1cc(C(F)(F)F)ccc1C(=O)C(C#N)C(=O)C1CC1", "note": "(centres unmarked) [DKN]", "values": [{"measurement": "response of line sown on DKN", "setting": "[1]; 5 ppm DKN", "value": "resistant"}, {"measurement": "response of line sown on DKN", "setting": "[1]; 10 ppm DKN", "value": "completely inhibited"}, {"measurement": "response of line sown on DKN", "setting": "[1]; 32 ppm DKN", "value": "completely inhibited"}, {"measurement": "response of lines sown on DKN", "setting": "[2]; 5 ppm DKN, all 13 ARA9-PDH lines", "value": "resistant"}, {"measurement": "response of line sown on DKN", "setting": "[2]; 10 ppm DKN, ARA9-PDH4 line", "value": "inhibited"}, {"measurement": "response of lines sown on DKN", "setting": "[2]; 10 ppm DKN, all ARA9-PDH lines except ARA9-PDH4", "value": "resist well"}, {"measurement": "response of lines sown on DKN", "setting": "[2]; 32 ppm DKN, ARA9-PDH lines that were resistant to 10 ppm", "value": "resistant and grow normally"}]}, {"smiles": "CS(=O)(=O)c1ccc(C(=O)C2C(=O)CCCC2=O)c([N+](=O)[O-])c1", "note": "[mesotrione]", "values": [{"measurement": "concentration of HPPD inhibitor the line is tolerant to", "setting": "ARA9-PDH18 tobacco line", "value": 3, "unit": "µM"}, {"measurement": "concentration of HPPD inhibitor the line is sensitive to", "setting": "[3]", "value": 0.375, "unit": "µM"}]}, {"smiles": "CS(=O)(=O)c1ccc(C(=O)C2C(=O)CCCC2=O)c(Cl)c1", "note": "[sulcotrione]", "values": [{"measurement": "concentration of HPPD inhibitor the line is tolerant to", "setting": "ARA9-PDH18 tobacco line", "value": 6, "unit": "µM"}, {"measurement": "concentration of HPPD inhibitor the line is sensitive to", "setting": "[3]", "value": 0.375, "unit": "µM"}]}]}
